According to ChEMBL document CHEMBL1201861, “Genomics of Drug Sensitity in Cancer screening data, Wellcome Trust Sanger Institute”:

Assays:
Test in all cases: cells
NCI-H1155 = format: functional, cell-based; details: Homo sapiens;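 also: cell growth inhibition measured by a viability assay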
Description: SANGER: Inhibition of human NCI-H1155 cell growth in a cell viability assay.

SNU1 = format: functional, cell-based; details: Homo sapiens;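 also: growth inhibition of human NCI-SNU-1 cells, measured with a cell viability assay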
Description: SANGER: Inhibition of human NCI-SNU-1 cell growth in a cell viability assay.

AM-38 = format: functional, cell-based, Homo sapiens; details: Homo sapiens, AM-38;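 also: growth inhibition of AM-38 cells of human origin, read out by a cell viability assay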
Description: SANGER: Inhibition of human AM-38 cell growth in a cell viability assay.

SW1463 = format: functional, cell-based, Homo sapiens; details: Homo sapiens, SW1463;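 also: growth inhibition of SW1463 cells, determined with a cell viability assay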
Description: SANGER: Inhibition of human SW1463 cell growth in a cell viability assay.

NEC8 = format: functional, cell-based, Homo sapiens; details: Homo sapiens, NEC8;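 also: growth inhibition of human NEC8 cells, read out by a cell viability assay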
Description: SANGER: Inhibition of human NEC8 cell growth in a cell viability assay.

KY821 = format: functional, cell-based; details: Homo sapiens;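 also: growth inhibition of human KY821 cells, read out by a cell viability assay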
U-251 = format: functional, cell-based, Homo sapiens; details: Homo sapiens, U-251;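 also: growth inhibition of human U-251 cells, read out through a cell viability assay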
Description: SANGER: Inhibition of human U251 cell growth in a cell viability assay.

G-402 = format: functional, cell-based, Homo sapiens; details: Homo sapiens, G-402
Description: SANGER: Inhibition of human G-402 cell growth in a cell viability assay.

BT-474 = format: functional, cell-based, Homo sapiens; details: Homo sapiens, BT-474
Description: SANGER: Inhibition of human BT-474 cell growth in a cell viability assay.

CW-2 = format: functional, cell-based, Homo sapiens; details: Homo sapiens, CW-2;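 also: growth inhibition of CW-2 cells, read out by a cell viability assay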
Description: SANGER: Inhibition of human CW-2 cell growth in a cell viability assay.

BE-13 = format: functional, cell-based; details: Homo sapiens;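 also: growth inhibition of human BE-13 cells, measured with a cell viability assay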
Description: SANGER: Inhibition of human BE-13 cell growth in a cell viability assay.

COLO-684 = format: functional, cell-based; details: Homo sapiens
Description: SANGER: Inhibition of human COLO-684 cell growth in a cell viability assay.

MLMA = format: functional, cell-based, Homo sapiens; details: Homo sapiens, MLMA;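 also: growth inhibition of MLMA cells (human), determined through a cell viability readout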
Description: SANGER: Inhibition of human MLMA cell growth in a cell viability assay.

BXPC-3 = format: functional, cell-based, Homo sapiens; details: Homo sapiens, BXPC-3;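 also: growth inhibition of human BxPC-3 cells, read out by a cell viability assay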
Description: SANGER: Inhibition of human BxPC-3 cell growth in a cell viability assay.

LS-1034 = format: functional, cell-based, Homo sapiens; details: Homo sapiens, LS-1034
Description: SANGER: Inhibition of human LS-1034 cell growth in a cell viability assay.

NCI-H1581 = format: functional, cell-based, Homo sapiens; details: Homo sapiens, NCI-H1581;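 also: cell growth inhibition read out by a viability assay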
Description: SANGER: Inhibition of human NCI-H1581 cell growth in a cell viability assay.

EW-3 = format: functional, cell-based; details: Homo sapiens;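 also: cell viability assay read-out, IC50 reflects inhibition of growth of the EW-3 cells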
Description: SANGER: Inhibition of human EW-3 cell growth in a cell viability assay.

FaDu = format: functional, cell-based, Homo sapiens; details: Homo sapiens, FaDu;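 also: cell viability readout of growth inhibition in FaDu cells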
Description: SANGER: Inhibition of human FADU cell growth in a cell viability assay.

D-502MG = format: functional, cell-based, Homo sapiens; details: Homo sapiens, D-502MG
Description: SANGER: Inhibition of human D-502MG cell growth in a cell viability assay.

CWR22R = format: functional, cell-based, Homo sapiens; details: Homo sapiens, 22Rv1;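 also: growth inhibition of 22Rv1 cells, read out with a cell viability assay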
Description: SANGER: Inhibition of human 22RV1 cell growth in a cell viability assay.

8-MG-BA = format: functional, cell-based, Homo sapiens; details: Homo sapiens, 8-MG-BA;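 also: growth inhibition of 8-MG-BA cells, read out with a cell viability assay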
Description: SANGER: Inhibition of human 8-MG-BA cell growth in a cell viability assay.

NB13 = format: functional, cell-based, Homo sapiens; details: Homo sapiens, NB13;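 also: cell viability readout measuring growth inhibition of human NB13 cells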
Description: SANGER: Inhibition of human NB13 cell growth in a cell viability assay.

SCC-4 = format: functional, cell-based, Homo sapiens; details: Homo sapiens, SCC-4;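 also: growth inhibition of human SCC-4 cells, read out as cell viability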
Description: SANGER: Inhibition of human SCC-4 cell growth in a cell viability assay.

HH = format: functional, cell-based; details: Homo sapiens
Description: SANGER: Inhibition of human HH cell growth in a cell viability assay.

NB10 = format: functional, cell-based, Homo sapiens; details: Homo sapiens, NB10;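 also: growth inhibition of NB10 cells, read out by a cell viability assay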
Description: SANGER: Inhibition of human NB10 cell growth in a cell viability assay.

BHY = format: functional, cell-based, Homo sapiens; details: Homo sapiens, BHY;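 also: cell growth inhibition read out by a viability assay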
Description: SANGER: Inhibition of human BHY cell growth in a cell viability assay.

NCI-H1437 = format: functional, cell-based, Homo sapiens; details: Homo sapiens, NCI-H1437;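 also: growth inhibition of human NCI-H1437 cells, read out by a cell viability assay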
Description: SANGER: Inhibition of human NCI-H1437 cell growth in a cell viability assay.

Ramos-2G6-4C10 = format: functional, cell-based; details: Homo sapiens;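 also: growth inhibition of the cell line, measured by a cell viability read-out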
Description: SANGER: Inhibition of human Ramos-2G6-4C10 cell growth in a cell viability assay.

MMAC-SF = format: functional, cell-based, Homo sapiens; details: Homo sapiens, MMAC-SF;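 also: growth inhibition of human MMAC-SF cells, read out with a cell viability assay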
Description: SANGER: Inhibition of human MMAC-SF cell growth in a cell viability assay.

NCI-H1092 = format: functional, cell-based; details: Homo sapiens;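 also: cell growth inhibition measured with a cell viability assay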
Description: SANGER: Inhibition of human NCI-H1092 cell growth in a cell viability assay.

MV4-11 = format: functional, cell-based, MV-4-11; details: Homo sapiens;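 also: cell viability readout measuring growth inhibition of human MV-4-11 cells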
Description: SANGER: Inhibition of human MV-4-11 cell growth in a cell viability assay.

MDA-MB-175-VII = format: functional, cell-based, Homo sapiens; details: Homo sapiens, MDA-MB-175-VII
OE19 = format: functional, cell-based, Homo sapiens; details: Homo sapiens, OE19;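 also: growth inhibition of OE19 cells, measured through a cell viability read-out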
Description: SANGER: Inhibition of human OE19 cell growth in a cell viability assay.

UMC-11 = format: functional, cell-based, Homo sapiens; details: Homo sapiens, UMC-11;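 also: growth inhibition of UMC-11 cells, read out with a cell viability assay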
Description: SANGER: Inhibition of human UMC-11 cell growth in a cell viability assay.

HCC1954 = format: functional, cell-based, Homo sapiens; details: Homo sapiens, HCC1954;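 also: growth inhibition of human HCC1954 cells, read out with a cell viability assay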
Description: SANGER: Inhibition of human HCC1954 cell growth in a cell viability assay.

JEG-3 = format: functional, cell-based, Homo sapiens; details: Homo sapiens, JEG-3;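 also: growth inhibition of human JEG-3 cells, read out with a cell viability assay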
Description: SANGER: Inhibition of human JEG-3 cell growth in a cell viability assay.

C2BBe1 = format: functional, cell-based, Homo sapiens; details: Homo sapiens, C2BBe1;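 also: growth inhibition of C2BBe1 cells, read out through a viability assay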
Description: SANGER: Inhibition of human C2BBe1 cell growth in a cell viability assay.

P30-OHK = format: functional, cell-based; details: Homo sapiens;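 also: growth inhibition of the P30-OHK cell line, read out with a cell viability assay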
Description: SANGER: Inhibition of human P30-OHK cell growth in a cell viability assay.

EM-2 = format: functional, cell-based; details: Homo sapiens;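 also: growth inhibition of EM-2 cells, read out with a cell viability assay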
Description: SANGER: Inhibition of human EM-2 cell growth in a cell viability assay.

SW-620 = format: functional, cell-based, Homo sapiens; details: Homo sapiens, SW-620;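 also: growth inhibition of human SW-620 cells, measured by a cell viability assay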
Description: SANGER: Inhibition of human SW620 cell growth in a cell viability assay.

NCI-H209 = format: functional, cell-based; details: Homo sapiens;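 also: growth inhibition of human NCI-H209 cells, measured by a cell viability assay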
Description: SANGER: Inhibition of human NCI-H209 cell growth in a cell viability assay.

697 = format: functional, cell-based; details: Homo sapiens
Description: SANGER: Inhibition of human 697 cell growth in a cell viability assay.

DMS-79 = format: functional, cell-based; details: Homo sapiens;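 also: growth inhibition measured with a cell viability assay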
Description: SANGER: Inhibition of human DMS-79 cell growth in a cell viability assay.

HuTu80 = format: functional, cell-based, Homo sapiens, HUTU-80; details: Homo sapiens, HuTu80;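 also: growth inhibition of HuTu80 human cells, determined with a cell viability readout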
Description: SANGER: Inhibition of human HUTU-80 cell growth in a cell viability assay.

DMS-114 = format: functional, cell-based, Homo sapiens; details: Homo sapiens, DMS-114
PANC-03-27 = format: functional, cell-based, Homo sapiens; details: Homo sapiens, PANC-03-27
Description: SANGER: Inhibition of human PANC-03-27 cell growth in a cell viability assay.

ES3 = format: functional, cell-based, Homo sapiens; details: Homo sapiens, ES3;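 also: growth inhibition of ES3 cells, read out with a cell viability assay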
Mo = format: functional, cell-based; details: Homo sapiens
Description: SANGER: Inhibition of human Mo-T cell growth in a cell viability assay.

LB831-BLC = format: functional, cell-based, Homo sapiens; details: Homo sapiens, LB831-BLC;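 also: growth inhibition of LB831-BLC cells, read out with a cell viability assay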
Description: SANGER: Inhibition of human LB831-BLC cell growth in a cell viability assay.

U-87 MG = format: functional, cell-based, U-87MG ATCC; details: Homo sapiens;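 also: growth inhibition of the cells measured with a viability assay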
Description: SANGER: Inhibition of human U-87-MG cell growth in a cell viability assay.

RCM-1 = format: functional, cell-based, Homo sapiens; details: Homo sapiens, RCM-1;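 also: growth inhibition of the RCM-1 line, determined with a cell viability readout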
Description: SANGER: Inhibition of human RCM-1 cell growth in a cell viability assay.

M14 = format: functional, cell-based, Homo sapiens; details: Homo sapiens, M14;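 also: growth inhibition of M14 cells, read out with a cell viability assay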
Description: SANGER: Inhibition of human M14 cell growth in a cell viability assay.

NCI-H2170 = format: functional, cell-based, Homo sapiens; details: Homo sapiens, NCI-H2170;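 also: cell viability assay measuring growth inhibition of human NCI-H2170 cancer cells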

In the case of `COC(=O)CNC(=O)C(=O)OC`, the IC50 (NCI-H1155) is reported as 1540 µM, the IC50 (SNU1) is reported as > 4000 µM and the IC50 (AM-38) is reported as 668 µM. For the same compound, the IC50 (SW1463) was 1780 µM, the IC50 (NEC8) was 406 µM and the IC50 (KY821) was > 4000 µM. The IC50 (U-251) was 215 µM, the IC50 (G-402) was 1230 µM and the IC50 (BT-474) was > 4000 µM. The IC50 (CW-2) was > 4000 µM, the IC50 (BE-13) was 180 µM and the IC50 (COLO-684) was 560 µM. The IC50 (MLMA) was 46.3 µM, the IC50 (BXPC-3) was 639 µM and the IC50 (LS-1034) was 2570 µM. For the same compound, the IC50 (NCI-H1581) was 729 µM, the IC50 (EW-3) was 1890 µM and the IC50 (FaDu) was 99.9 µM. For the same compound, the IC50 (D-502MG) was > 4000 µM, the IC50 (CWR22R) was 304 µM and the IC50 (8-MG-BA) was 126 µM. It also gave an IC50 (NB13) of 659 µM, an IC50 (SCC-4) of 877 µM and an IC50 (HH) of 34 µM. It also gave an IC50 (NB10) of 524 µM, an IC50 (BHY) of 465 µM and an IC50 (NCI-H1437) of 90.8 µM. The IC50 (Ramos-2G6-4C10) was 100 µM, the IC50 (MMAC-SF) was 881 µM and the IC50 (NCI-H1092) was 1200 µM. For the same compound, the IC50 (MV4-11) was 276 µM, the IC50 (MDA-MB-175-VII) was > 4000 µM and the IC50 (OE19) was > 4000 µM. The IC50 (UMC-11) was 147 µM, the IC50 (HCC1954) was 900 µM and the IC50 (JEG-3) was 908 µM. It also gave an IC50 (C2BBe1) of 1730 µM, an IC50 (P30-OHK) of 467 µM and an IC50 (EM-2) of 234 µM. The IC50 (SW-620) was 3230 µM, the IC50 (NCI-H209) was 1130 µM and the IC50 697 was 229 µM. For the same compound, the IC50 (DMS-79) was > 4000 µM, the IC50 (HuTu80) was 1260 µM and the IC50 (DMS-114) was > 4000 µM. The IC50 (PANC-03-27) was 672 µM, the IC50 (ES3) was 701 µM and the IC50 (Mo) was 1880 µM. It also gave an IC50 (LB831-BLC) of 911 µM, an IC50 (U-87 MG) of 147 µM and an IC50 (RCM-1) of 2980 µM. For the same compound, the IC50 (M14) was 1860 µM and the IC50 (NCI-H2170) was > 4000 µM.
In the case of `CN(C)C/C=C/C(=O)Nc1cc2c(Nc3ccc(F)c(Cl)c3)ncnc2cc1O[C@H]1CCOC1` [AFATINIB], the IC50 (NCI-H1155) is reported as > 0.5 µM, the IC50 (SNU1) is reported as > 0.5 µM and the IC50 (AM-38) is reported as > 0.5 µM. The IC50 (SW1463) was > 0.5 µM, the IC50 (NEC8) was > 0.5 µM and the IC50 (KY821) was 0.0206 µM. The IC50 (U-251) was > 0.5 µM, the IC50 (G-402) was > 0.5 µM and the IC50 (BT-474) was 0.0499 µM. For the same compound, the IC50 (CW-2) was 0.469 µM, the IC50 (BE-13) was > 0.5 µM and the IC50 (COLO-684) was > 0.5 µM. The IC50 (MLMA) was > 0.5 µM, the IC50 (BXPC-3) was > 0.5 µM and the IC50 (LS-1034) was > 0.5 µM. The IC50 (NCI-H1581) was > 0.5 µM, the IC50 (EW-3) was > 0.5 µM and the IC50 (FaDu) was > 0.5 µM. The IC50 (D-502MG) was > 0.5 µM, the IC50 (CWR22R) was > 0.5 µM and the IC50 (8-MG-BA) was > 0.5 µM. For the same compound, the IC50 (NB13) was > 0.5 µM, the IC50 (SCC-4) was > 0.5 µM and the IC50 (HH) was > 0.5 µM. The IC50 (NB10) was > 0.5 µM, the IC50 (BHY) was 0.287 µM and the IC50 (NCI-H1437) was > 0.5 µM. For the same compound, the IC50 (Ramos-2G6-4C10) was > 0.5 µM, the IC50 (MMAC-SF) was > 0.5 µM and the IC50 (NCI-H1092) was > 0.5 µM. The IC50 (MV4-11) was > 0.5 µM, the IC50 (MDA-MB-175-VII) was 0.0342 µM and the IC50 (OE19) was > 0.5 µM. For the same compound, the IC50 (UMC-11) was > 0.5 µM, the IC50 (HCC1954) was > 0.5 µM and the IC50 (JEG-3) was > 0.5 µM. For the same compound, the IC50 (C2BBe1) was > 0.5 µM, the IC50 (P30-OHK) was > 0.5 µM and the IC50 (EM-2) was > 0.5 µM. For the same compound, the IC50 (SW-620) was > 0.5 µM, the IC50 (NCI-H209) was 0.205 µM and the IC50 697 was > 0.5 µM. For the same compound, the IC50 (DMS-79) was > 0.5 µM, the IC50 (HuTu80) was > 0.5 µM and the IC50 (DMS-114) was > 0.5 µM. For the same compound, the IC50 (PANC-03-27) was > 0.5 µM, the IC50 (ES3) was > 0.5 µM and the IC50 (Mo) was > 0.5 µM. For the same compound, the IC50 (LB831-BLC) was > 0.5 µM, the IC50 (U-87 MG) was > 0.5 µM and the IC50 (RCM-1) was > 0.5 µM. For the same compound, the IC50 (M14) was > 0.5 µM and the IC50 (NCI-H2170) was 0.0373 µM.
